# Reference: patent publication US20220386606A1, “SPECIFICALLY SUBSTITUTED 3-PHENYL-5-SPIROCYCLOPENTYL-3-PYRROLIN-2-ONES AND THEIR USE AS HERBICIDES” (Bayer Aktiengesellschaft, priority 2019, published 2022)
# Legend:
# ECHCG [1] = test: Post-emergence herbicidal action against ECHCG; assay type: in vivo, Echinochloa crus-galli; settings: 80 g/ha, visual assessment about 3 weeks after treatment vs untreated controls
# Procedure, shortened: (§1)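 Visual scoring about 3 weeks after treatment gave % herbicidal action relative to untreated plants (0% = control-like, 100% = plants dead). Compounds, as WP or EC with 0.2% wetting agent, were sprayed onto green parts at 600–800 l/ha. Plants had reached the one-leaf stage, 2–3 weeks after sowing in sandy loam under greenhouse conditions.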
# AMARE = test: Pre-emergence herbicidal action against AMARE; assay type: in vivo, Amaranthus retroflexus; settings: 320 g/ha
# Procedure, shortened: (§2)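 Visual percent damage, rated 3 weeks after treatment against untreated plants (0% like control, 100% plants dead). Compounds, as wettable powders or emulsion concentrates, were sprayed pre-emergence onto soil covering seeds sown in sandy loam, at 600 to 800 L/ha water with 0.2% wetting agent; pots kept in greenhouse.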
# AVEFA [2] = test: Pre-emergence herbicidal action against AVEFA; assay type: in vivo, Avena fatua; settings: 320 g/ha, scored visually after 3 weeks vs untreated controls
# Procedure, shortened: as §2
# DIGSA [3] = test: Pre-emergence herbicidal action against DIGSA; assay type: in vivo, Digitaria sanguinalis; settings: 320 g/ha, scored visually after 3 weeks vs untreated controls
# Procedure, shortened: as §2
# LOLRI [4] = test: Post-emergence herbicidal action against LOLRI; assay type: in vivo, Lolium rigidum; settings: 80 g/ha, visual assessment about 3 weeks after treatment vs untreated controls
# Procedure, shortened: as §1
# SETVI [5] = test: Post-emergence herbicidal action against SETVI; assay type: in vivo, Setaria viridis; settings: 80 g/ha, visual assessment about 3 weeks after treatment vs untreated controls
# Procedure, shortened: as §1
# VIOTR = test: Pre-emergence herbicidal action against VIOTR; assay type: in vivo, Viola tricolor; settings: 320 g/ha
# Procedure, shortened: as §2
# ECHCG [6] = test: Pre-emergence herbicidal action against ECHCG; assay type: in vivo, Echinochloa crus-galli; settings: 320 g/ha, scored visually after 3 weeks vs untreated controls
# Procedure, shortened: as §2
# LOLRI [7] = test: Pre-emergence herbicidal action against LOLRI (Table 8, titled post-emergence at 320 g/ha); assay type: in vivo, Lolium rigidum; settings: table stands in the pre-emergence section
# Procedure, shortened: as §2
# ALOMY [8] = test: Post-emergence herbicidal action against ALOMY; assay type: in vivo, Alopecurus myosuroides; settings: 80 g/ha, visual assessment after about 3 weeks
# Procedure, shortened: as §1
# DIGSA [9] = test: Post-emergence herbicidal action against DIGSA; assay type: in vivo, Digitaria sanguinalis; settings: 80 g/ha, visual assessment about 3 weeks after treatment vs untreated controls
# Procedure, shortened: as §1
# ALOMY [10] = test: Pre-emergence herbicidal action against ALOMY; assay type: in vivo, Alopecurus myosuroides; settings: 320 g/ha, scored visually after 3 weeks vs untreated controls
# Procedure, shortened: as §2
# VERPE = test: Pre-emergence herbicidal action against VERPE; assay type: in vivo, Veronica persica; settings: 320 g/ha
# Procedure, shortened: as §2
# SETVI [11] = test: Pre-emergence herbicidal action against SETVI; assay type: in vivo, Setaria viridis; settings: 320 g/ha, scored visually after 3 weeks vs untreated controls
# Procedure, shortened: as §2
# MATIN = test: Pre-emergence herbicidal action against MATIN; assay type: in vivo; settings: 320 g/ha
# Source text: Seeds of monocotyledonous and dicotyledonous weed plants and crop plants are laid out in sandy loam soil in wood-fiber pots and covered with soil. The compounds of the invention, formulated in the form of wettable powders (WP) or as emulsion concentrates (EC), are then applied to the surface of the covering soil as aqueous suspension or emulsion at a water application rate equating to 600 to 800 L/ha with addition of 0.2% wetting agent.
# After the treatment, the pots are placed in a greenhouse and kept under good growth conditions for the trial plants. The damage to the test plants is scored visually after a test period of 3 weeks by comparison with untreated controls (herbicidal activity in percent (%): 100% activity=the plants have died, 0% activity=like control plants).
# ABUTH = test: Post-emergence herbicidal action against ABUTH; assay type: in vivo, Abutylon threophrasti; settings: 80 g/ha, visual assessment about 3 weeks after treatment vs untreated controls
# Procedure: Seeds of monocotyledonous and dicotyledonous weed and crop plants are laid out in sandy loam soil in wood-fiber pots, covered with soil and cultivated in a greenhouse under good growth conditions. 2 to 3 weeks after sowing, the test plants are treated at the one-leaf stage. The compounds of the invention, formulated in the form of wettable powders (WP) or as emulsion concentrates (EC), are then sprayed onto the green parts of the plants as aqueous suspension or emulsion at a water application rate equating to 600 to 800 l/ha with addition of 0.2% wetting agent. After the test plants have been left to stand in the greenhouse under optimal growth conditions for about 3 weeks, the action of the preparations is assessed visually in comparison to untreated controls (herbicidal action in percent (%): 100% activity=the plants have died, 0% activity=like control plants).
# AVEFA [12] = test: Post-emergence herbicidal action against AVEFA; assay type: in vivo, Avena fatua; settings: 80 g/ha, visual assessment after about 3 weeks
# Procedure, shortened: as §1
Compound,Post-emergence action against ECHCG in % (ECHCG [1]) [%],Pre-emergence action against AMARE in % (AMARE) [%],Pre-emergence action against AVEFA in % (AVEFA [2]) [%],Pre-emergence action against DIGSA in % (DIGSA [3]) [%],Post-emergence action against LOLRI in % (LOLRI [4]) [%],Post-emergence action against SETVI in % (SETVI [5]) [%],Pre-emergence action against VIOTR in % (VIOTR) [%],Pre-emergence action against ECHCG in % (ECHCG [6]) [%],Pre-emergence herbicidal action against LOLRI in % (LOLRI [7]) [%],Post-emergence action against ALOMY in % (ALOMY [8]) [%],Post-emergence action against DIGSA in % (DIGSA [9]) [%],Pre-emergence action against ALOMY in % (ALOMY [10]) [%],Pre-emergence action against VERPE in % (VERPE) [%],Pre-emergence action against SETVI in % (SETVI [11]) [%],Pre-emergence action against MATIN in % (MATIN) [%],Post-emergence action against ABUTH in % (ABUTH) [%],Post-emergence action against AVEFA in % (AVEFA [12]) [%]
CC#Cc1cc(Br)c(C2=C(OC(=O)OCC)C3(CCC(COCC)C3)NC2=O)c(OC)c1 (stereo not drawn) [Example P-05],100,100,100,100,100,100,100,100,100,100,100,100,80,100,90,,
CC#Cc1cc(Br)c(C2=C(OC(=O)C(C)C)C3(CCC(COCC)C3)NC2=O)c(OC)c1 (stereo not drawn) [Example P-23],100,90,100,100,90,100,100,100,100,100,100,100,90,100,,80,
CC#Cc1cc(F)c(C2=C(OC(=O)OCC)C3(CCC(COCC)C3)NC2=O)c(OC)c1 (stereo not drawn) [Example P-61],100,,90,100,100,100,,100,100,90,100,100,90,100,,80,80
CC#Cc1cc(F)c(C2=C(OC(=O)C(C)C)C3(CCC(COCC)C3)NC2=O)c(OC)c1 (stereo not drawn) [Example P-64],100,,80,100,100,100,,90,100,100,100,100,,100,,80,80
